In PMC6764124 (Journal of Neuroinflammation, 2019):
Where two headings read alike, the source gives them in different places.

Experiments:
[1] = system: HAND mice (IC injection of HIV-infected human MDM); assay: Brain HAND markers by flow cytometry in SCID mouse HAND model; format: in vivo; conditions: day 14, versus untreated HAND mice
Experimental: Four-week-old B6.CB17-Prkdc^scid/SzJ (SCID) male mice were injected IC with 30 μL of HIV-infected MDMs suspended in 0.9% saline, directly into the frontal lobe of the right hemisphere. The injection was done free-handed (without a stereotactic device). The injection is performed with a syringe that allows a very slow rate of infusion. We have verified the injection site with a histological staining in our previously published works, which is in the basal ganglia as described in Koneru et al.. Injections were performed on day 0 (D0). Treatments (baricitinib or saline) were given subcutaneously (SC).
Fourteen days after IC MDM inoculation, mice were sacrificed and brain samples were harvested and placed in a tissue preservative solution (Miltenyi, Bergisch Gladbach, Germany). Samples were then dissociated using a commercial kit and a gentleMacs dissociator (Miltenyi) into single cell suspensions. Cells were then washed in 2% BSA/PBS buffer and incubated with the following: (1) anti-murine CD45-Vioblue (1:10 dilution) and anti-murine MHCII primary antibody (1:500) followed by APC conjugated secondary antibody (1:500 dilution), or isotype-only controls; (2) GFAP-FITC (1:750 dilution 1′ antibody and 1:1000 2′ 488 (FITC) antibody (Abcam, Cambridge, UK); or (3) human (non-murine cross-reactive) CD163-APC (Miltenyi Biotec) for 30 min (Sigma Aldrich, St. Louis, MO). Cells were washed twice in 2% BSA/PBS and fixed with 2% paraformaldehyde for 15 min. Cells were washed twice in 2% BSA/PBS and analyzed for double positive cells by flow cytometry (Macs Quant analyzer and MacsQuantify software, Miltenyi Biotec).
Total events were collected using forward scatter (FSC) and side scatter […] followed by doublet discrimination (FSC-area versus FSC-height) using a MacsQuant flow cytometer (Miltenyi). No primary FSC/SSC gate was established, to allow all events to be collected within the heterogeneous size and granularity of the brain cells. GFAP^+ events were collected with gates and voltages established using 2′ antibody only. GFAP^+ low granularity gate was established with events up to one-log shift from negative population, and GFAP^+ high granularity (activated astrocytes) was established with events greater than two-log shift from negative population. MHCII and CD45 (mouse mononuclear phagocytes) expression were quantified based on quadrant gating for MHCII^+/CD45^−, CD45^+MHCII^−, MHCII^+/CD45^+, or MHCII^−/CD45^−. CD163^+ events (human Mϕ) were collected with gates established from isotype-only controls. Percentages and total events were collected.

[2] = system: non-dividing p24+ primary CD4+ T cells; assay: Frequency of non-dividing p24+ latent primary CD4+ T cells in vitro; format: cell-based, human
J-lat T cells = assay: TNF-α-induced reactivation of latent HIV-1 in J-lat T cells; format: cell-based, human
[3] = set-up: method as in Olumiant.com; conditions: at concentrations more than 2 logs above concentrations in the murine model; ref Olumiant.com; cited from earlier work
HIV-1baL = assay: Antiviral activity in primary human macrophages (p24 ELISA); format: cell-based; conditions: for EC90: read-out: EC90 inhibition of HIV replication in macrophages
From the text: Mϕ and monocytes were isolated as previously described. […] Cells were maintained for 6 days before viral quantification (p24-ELISA). For in vitro activation marker studies, CD14^+ monocytes or fully differentiated (CD14^−/CD11b^+) Mϕ were used. Monocytes were used as a model to mimic HIV-induced activation that transpires in the periphery, wherein presence or internalization of HIV-1 in monocytes confers activation (CD14^+/CD16^+) and subsequent trafficking of “Trojan horse” monocytes across and within the BBB [11, 12]. The method used to differentiate Mϕ (CD14^−/CD11b^+) has been validated by our group to ensure that these cells are no longer expressing monocyte marker CD14 and are mature Mϕ (CD11b expression). Mϕ or monocytes were treated with various concentrations of drug prior to infection (HIV-1baL) and maintained for 3 days before quantification of HLA-DR, CD163 (Mϕ), or CD14/CD16 (monocytes; Miltenyi Biotec, San Diego, CA). Mϕ and monocytes were treated with various concentrations of drug for 6 days and stained with Near-IR live/dead dye and quantified by FACS. Antiviral potency was calculated as previously described.

[4] = system: latent HIV-1 in primary human Mϕ; assay: PMA-induced reactivation of HIV-1 from latent primary human macrophages (p24 ELISA); format: cell-based
Experimental: Primary human Mϕ were prepared as described above and infected with an MOI of 0.5 with HIV-1BaL for 4 h prior to removal of virus and culture in virus-free medium. Supernatants were collected every 5 days, and extracellular p24 production was monitored (p24 ELISA, ABL, Inc.). Fresh culture medium was added to cultures every 5 days as supernatants were collected for p24 analysis. […] After 24 h post-reactivation, cellular supernatants were collected, and extracellular reactivated p24 was quantified (p24 ELISA). Percent inhibition of reactivation was calculated versus no drug controls, and EC50/90 were calculated as previously described.

[5] = Pharmacokinetics of baricitinib in mouse plasma and brain after single SC dose (LC-MS/MS); format: in vivo, SCID mice; conditions: for Cmax: SCID mice
Experimental: One, 4, 8, and 24 h after drug inoculation, mice were sacrificed and whole blood was collected immediately followed by cardiac perfusion with PBS prior to the extraction of brain tissues. After brain extraction, posterior fossa (the cerebellum and brainstem) was taken, snap frozen, and stored at − 70 °C. Posterior fossa from each mouse was then weighed and homogenized in a mixed water and methanol (2:1) solution. The homogenates were then centrifuged, and the pellet discarded. The supernatant was dried by evaporation using nitrogen gas, resuspended in 1 mL water, and put through Isolute-XL C18 columns (Biotage, Uppsala, Sweden). Drug was then eluted with acetonitrile and subsequently dried. […] Chromatographic separation was performed by Ultimate 3000 LC system (Thermo Scientific, MA, USA), on a Kinetex XB-C18 column (50 × 2.1 mm) with a 2.6-μm particle size (Phenomenex, CA, USA). The mobile phase A consisted of 0.1% formic acid in water, and the mobile phase B consisted of methanol. Isocratic elution was used for the separation with mobile phase A:B at 25:75 (v/v). The column was maintained at ambient temperature. The flow rate was maintained at 250 μL/min, and a 20-μL injection was used. An API5000 triple quadrupole mass spectrometer (ABsciex, MA, USA) was used for detection, with electrospray ionization in positive ion mode. The mass spectrum parameters for the analytes were set as follows: ion spray voltage, 5500 V; curtain gas, 25 psi; ion source gas 1, 40 psi; ion source gas 2, 40 psi; source temperature, 500 °C; and collision gas, 5 psi. […] Analyst software version 1.5.2 was used to operate the mass spectrometer and to perform data analysis. […] The calibration curves had r^2 value greater than 0.99.

[6] = system: HIV replication in primary PBM cells; assay: Antiviral activity in activated peripheral blood mononuclear (PBM) cells; format: cell-based, HIV-1; conditions: for EC90: read-out: EC90 inhibition of HIV replication in PBM cells
[7] = system: HLA-DR and CD163 in primary human Mϕ; assay: HIV-induced upregulation of activation markers HLA-DR and CD163 in primary human macrophages; format: cell-based
From the text: Mϕ and monocytes were isolated as previously described. […] Cells were maintained for 6 days before viral quantification (p24-ELISA). For in vitro activation marker studies, CD14^+ monocytes or fully differentiated (CD14^−/CD11b^+) Mϕ were used. […] The method used to differentiate Mϕ (CD14^−/CD11b^+) has been validated by our group to ensure that these cells are no longer expressing monocyte marker CD14 and are mature Mϕ (CD11b expression). […] Miltenyi Biotec, San Diego, CA). Mϕ and monocytes were treated with various concentrations of drug for 6 days and stained with Near-IR live/dead dye and quantified by FACS. Antiviral potency was calculated as previously described. […] Cells were harvested and stained for CD14^+ (FITC)/CD16^+ (APC) to quantify HIV-induced activation or impact of drugs on block of these markers.

latent HIV in T cells = system: latent HIV in T cells; set-up: method as in PMID 29267399; conditions: cited from earlier work
HIVE mouse model = system: HIVE mouse model; set-up: method as in PMID 26851503; conditions: cited from earlier work
HIV-infected individuals = system: HIV-infected individuals; set-up: method as in earlier work; conditions: cited from earlier work

For CCS(=O)(=O)N1CC(CC#N)(n2cc(-c3ncnc4[nH]ccc34)cn2)C1 [Baricitinib], the “Activated astrocytes (GFAP+; astrogliosis) in brain” value ([1]; 10 mg/kg qd SC) was “reduced”, the “Percentage of activated mouse mononuclear phagocytes (MHCII/CD45 double positive cells) in brain” value ([1]; 10 mg/kg qd SC) was “significantly reduced” and the “Activated p24+ human Mϕ in brain” value ([1]; 50 mg/kg qd SC (high dose)) was “significantly reduced”. The “Activated astrocytes (GFAP+; astrogliosis) in brain” value ([1]; 50 mg/kg qd SC) was “reduced”, the “Percentage of activated mouse mononuclear phagocytes (MHCII/CD45 double positive cells) in brain” value ([1]; 50 mg/kg qd SC) was “significantly reduced” and the EC90 ([2]; Homo sapiens, non-dividing p24+ primary CD4+ T cells, read-out: EC90 reduction of non dividing latent CD4 T cells) was 700 ± 80 nM. The EC90 (J-lat T cells; Homo sapiens, T-cell, read-out: EC90 inhibition of TNF-α induced reactivation) was 1100 ± 300 nM, the Toxicity [3] was “not toxic” and the EC90 (HIV-1baL; Human immunodeficiency virus 1, Macrophage) was 2100 ± 300 nM. For the same compound, the EC90 ([4]; Macrophage, latent primary human macrophages, 50 ng/mL PMA, 24 h, read-out: EC90 inhibition of PMA induced reactivation) was 700 ± 100 nM, the “Detection in plasma and brain samples” value ([5]; 1, 4, 8, 24 h after 10 or 50 mg/kg SC, limit of detection 5.5 ng/mL) was “detected in all plasma and brain samples except for 24 h plasma samples at 10 mg/kg” and the Blood-brain barrier penetration ([5]; 10 and 50 mg/kg SC, mouse) was “can penetrate mouse BBB”. The Cmax ([5]; mouse, brain (posterior fossa: cerebellum and brainstem), 10 mg/kg single SC, read-out: Cmax in the brain) was about 40 ng/g, the Cmax ([5]; mouse, brain (posterior fossa: cerebellum and brainstem), 50 mg/kg single SC, read-out: Cmax in the brain) was about 75 ng/g and the Cmax ([5]; mouse, plasma, 10 mg/kg single SC, read-out: Cmax in plasma) was about 200 ng/mL. For the same compound, the Cmax ([5]; mouse, plasma, 50 mg/kg single SC, read-out: Cmax in plasma) was about 1400 ng/mL, the EC90 ([6]; Human immunodeficiency virus 1, PBMC) was 400 ± 70 nM and the EC90 ([7]; Macrophage, primary human macrophages, read-out: EC90 inhibition of HIV-induced HLA-DR and CD163) was 1200 nM.
For C[C@@H]1CCN(C(=O)CC#N)C[C@@H]1N(C)c1ncnc2[nH]ccc12 [tofacitinib], the “Reactivation of latent HIV from T cells” value (latent HIV in T cells) is given as “block the reactivation”.
In the case of Nc1ccn([C@@H]2CS[C@H](CO)O2)c(=O)n1 [3TC], the “Effect on frequency of non-dividing latent CD4 T cells (dose response, Figure S1 E)” value [2] is reported as “did not have any effect”, the “Effect on TNF-a induced reactivation (dose response, Figure S1 C)” value (J-lat T cells) is reported as “did not have any effect” and the EC50 (HIV-1baL; primary human Mϕ, read-out: EC50 inhibition of HIV replication in macrophages) is reported as 100 nM. For the same compound, the EC90 (HIV-1baL; primary human Mϕ) was 1200 nM, the “Effect on PMA induced reactivation (dose response, Figure S1 D)” value ([4]; macrophages) was “did not have any effect” and the EC50 ([6]; primary activated PBM cells, read-out: EC50 inhibition of HIV replication in PBM cells) was 10 nM. For the same compound, the EC90 ([6]; primary activated PBM cells) was 900 nM and the “Effect on HIV-induced activation markers HLA-DR/CD163 double positive macrophages (dose response, Figure S1 F)” value [7] was “did not have any effect”.
For N#CC[C@H](C1CCCC1)n1cc(-c2ncnc3[nH]ccc23)cn1 [ruxolitinib], the “Effect on HIVE in mouse model” value (HIVE mouse model) is listed as “ameliorates HIVE”, the “Reactivation of latent HIV from T cells” value (latent HIV in T cells) is listed as “block the reactivation” and the Safety and tolerability (HIV-infected individuals; HIV-infected, cART-suppressed individuals, versus control cART group) is listed as “safe and well-tolerated”. For the same compound, the “sCD14 (clinical marker for monocyte activation)” value (HIV-infected individuals; ruxolitinib arm versus cART group) was “significant reduction”.
